Data set [1] concerns the target T1, porcine kidney alanine aminopeptidase (pAPN, EC 3.4.11.2) (Sus scrofa, UniProt P15145).
T1 construct: porcine kidney alanine aminopeptidase (pAPN, EC 3.4.11.2); purchased Sigma Aldrich (Poznan, Poland); host or cells: porcine kidney (tissue-derived)
T1 sequence (P15145 1-963): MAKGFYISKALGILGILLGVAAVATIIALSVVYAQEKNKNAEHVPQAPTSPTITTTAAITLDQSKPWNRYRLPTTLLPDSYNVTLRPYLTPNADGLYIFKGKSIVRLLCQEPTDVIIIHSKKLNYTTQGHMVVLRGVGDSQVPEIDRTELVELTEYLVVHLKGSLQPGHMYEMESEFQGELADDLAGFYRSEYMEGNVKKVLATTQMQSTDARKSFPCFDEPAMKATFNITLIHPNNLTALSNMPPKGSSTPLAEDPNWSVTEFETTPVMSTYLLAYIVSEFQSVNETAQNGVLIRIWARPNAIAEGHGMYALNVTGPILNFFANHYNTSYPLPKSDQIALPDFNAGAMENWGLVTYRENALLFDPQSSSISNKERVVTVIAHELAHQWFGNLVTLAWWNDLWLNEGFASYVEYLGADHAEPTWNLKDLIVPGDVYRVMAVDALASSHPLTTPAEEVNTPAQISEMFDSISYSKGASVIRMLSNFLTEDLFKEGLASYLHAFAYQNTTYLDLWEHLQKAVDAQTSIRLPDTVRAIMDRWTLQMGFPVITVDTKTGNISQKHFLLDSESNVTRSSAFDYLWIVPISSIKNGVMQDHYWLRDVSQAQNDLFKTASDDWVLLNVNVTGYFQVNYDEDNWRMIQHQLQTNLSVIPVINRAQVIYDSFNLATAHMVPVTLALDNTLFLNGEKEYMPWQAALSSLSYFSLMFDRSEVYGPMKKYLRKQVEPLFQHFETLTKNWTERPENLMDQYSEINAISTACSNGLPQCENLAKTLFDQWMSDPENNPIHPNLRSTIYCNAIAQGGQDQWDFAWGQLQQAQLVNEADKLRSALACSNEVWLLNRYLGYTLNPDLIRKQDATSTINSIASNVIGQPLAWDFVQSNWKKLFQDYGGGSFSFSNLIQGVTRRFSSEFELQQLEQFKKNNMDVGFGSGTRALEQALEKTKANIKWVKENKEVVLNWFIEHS
Put plainly: Fluorogenic (Ala-AMC) enzyme inhibition assay, pAPN. The format is biochemical. The conditions noted are these: for Ki: racemic compounds, substrate Ala-AMC 100 µM, 50 mM Tris-HCl pH 7.20, 37 °C.

Data set [2] concerns the target T2, Recombinant human alanine aminopeptidase (hAPN, EC 3.4.11.2) (Homo sapiens, UniProt P15144).
T2 construct: purchased R&D System (Minneapolis, MN)
Put plainly: Fluorogenic (Ala-AMC) enzyme inhibition assay, hAPN. The format is biochemical. The conditions noted are these: for Ki: racemic compounds, substrate Ala-AMC 50 µM, 50 mM Tris-HCl pH 7.00, 37 °C.

In data set [3] the target is T2, Recombinant human alanine aminopeptidase (hAPN, EC 3.4.11.2). The conditions noted are these: data from previous studies; cited from earlier work.
The target of data set [4] is T1, porcine kidney alanine aminopeptidase (pAPN, EC 3.4.11.2). Particulars: data from previous studies; cited from earlier work.

Here are results for 16 compounds from PMC7565091, “Synthesis and Inhibitory Studies of Phosphonic Acid Analogues of Homophenylalanine and Phenylalanine towards Alanyl Aminopeptidases” (Biomolecules, 2020).

Where two headings read alike, the source gives them in different places.

T2 sequence (P15144 whole entry): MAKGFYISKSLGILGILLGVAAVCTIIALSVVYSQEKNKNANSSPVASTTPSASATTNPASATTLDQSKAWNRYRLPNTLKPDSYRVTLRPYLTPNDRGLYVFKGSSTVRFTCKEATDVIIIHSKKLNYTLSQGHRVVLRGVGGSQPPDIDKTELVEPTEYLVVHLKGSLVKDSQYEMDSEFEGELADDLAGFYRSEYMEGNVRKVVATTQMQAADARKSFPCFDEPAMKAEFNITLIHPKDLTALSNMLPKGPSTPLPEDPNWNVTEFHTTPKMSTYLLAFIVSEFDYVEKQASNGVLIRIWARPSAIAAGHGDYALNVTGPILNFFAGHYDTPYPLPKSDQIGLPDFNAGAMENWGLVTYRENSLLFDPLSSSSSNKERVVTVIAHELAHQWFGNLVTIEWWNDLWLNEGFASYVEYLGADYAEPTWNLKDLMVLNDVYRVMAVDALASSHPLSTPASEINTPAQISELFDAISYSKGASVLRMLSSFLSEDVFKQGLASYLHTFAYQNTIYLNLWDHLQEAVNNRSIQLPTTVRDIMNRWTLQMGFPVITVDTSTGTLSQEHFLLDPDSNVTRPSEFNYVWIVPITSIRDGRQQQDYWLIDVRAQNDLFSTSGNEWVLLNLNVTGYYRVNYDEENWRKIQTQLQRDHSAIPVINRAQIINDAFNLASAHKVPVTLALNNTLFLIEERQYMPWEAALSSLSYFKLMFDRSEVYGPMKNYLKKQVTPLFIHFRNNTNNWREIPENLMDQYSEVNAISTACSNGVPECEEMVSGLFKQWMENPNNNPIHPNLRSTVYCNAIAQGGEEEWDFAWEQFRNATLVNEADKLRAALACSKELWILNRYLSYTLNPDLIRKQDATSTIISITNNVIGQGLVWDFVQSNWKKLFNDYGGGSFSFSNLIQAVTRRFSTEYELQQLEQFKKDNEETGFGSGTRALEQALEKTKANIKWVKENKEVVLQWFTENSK

For the compound “1-Amino-3-(2-Bromo-4-Fluorophenyl)ethylphosphonic Acid [Compound 17a]”, the Ki – broadly, the dissociation constant of the complex between target and ligand, obtained from inhibition or displacement – in data set [1] is 70 ± 6.6 µM; in data set [2], 14 ± 0.4 µM.
For the compound “1-Amino-3-(4-Bromo-2-Fluorophenyl)ethylphosphonic Acid [Compound 17d]”, the values for the Ki in data set [1] and in data set [2] were 82.5 ± 2 µM and 7.36 ± 0.21 µM, respectively.
In the case of “1-Amino-3-(4-Bromo-3-Fluorophenyl)ethylphosphonic Acid [Compound 17e]”, the Ki in data set [1] is 4.23 ± 0.44 µM; in data set [2] it was 0.67 ± 0.049 µM.
As for `Cc1cc(=O)oc2cc(NC(=O)[C@H](C)N)ccc12` [Ala-AMC, L-alanine-4-methylcoumaryl-7-amide, reference compound], the Km (as a rule, the substrate concentration at which the rate is half of its maximum) in data set [1] (substrate constant, determined analogously to the literature [23], read-out: Km towards Ala-AMC, pAPN) came out at 90 µM; in data set [2] (substrate constant, determined analogously to the literature [23], read-out: Km towards Ala-AMC, hAPN), 73 µM.
For the compound `NC(CCc1ccccc1F)P(=O)(O)O` (stereo not shown) [Compound 15b, 1-Amino-3-(2-Fluorophenyl)propylphosphonic Acid], the melting point (usually the temperature of the solid-liquid transition) was in the range of 292 to 294 °C. For the same compound, in data set [1], the Ki was 12.7 ± 0.8 µM. Moreover, the Ki in data set [2] came out at 0.506 ± 0.038 µM.
`NC(CCc1cccc(F)c1)P(=O)(O)O` (stereo not shown) [Compound 15c, 1-Amino-3-(3-Fluorophenyl)propylphosphonic Acid] displayed a melting point of 292 to 294 °C. The inhibitory constant (Ki) in data set [1] amounted to 2.63 ± 0.18 µM. Moreover, the Ki in data set [2] was 0.129 ± 0.025 µM. The “times better inhibitor than 15a” value in data set [2] (ratio of Ki values versus compound 15a, the text says both aminopeptidases, the factor matches hAPN) worked out at 5.
Take `NC(CCc1ccc(F)cc1)P(=O)(O)O` (stereo not shown) [Compound 15d, 1-Amino-3-(4-Fluorophenyl)propylphosphonic Acid]: the melting point was 303 to 305 °C. The compound also returned a Ki in data set [1] of 1.69 ± 0.81 µM. The Ki in data set [2] was determined as 0.249 ± 0.025 µM.
`NC(CCc1ccc(F)cc1F)P(=O)(O)O` (stereo not shown) [Compound 15e, 1-Amino-3-(2,4-Difluorophenyl)propylphosphonic Acid] gave a melting point of 304 to 306 °C. Also, the affinity in data set [1] corresponds to a Ki of 1.71 ± 0.46 µM. Further, in data set [2], the Ki is 0.661 ± 0.105 µM.
`NC(CCc1ccc(F)c(F)c1)P(=O)(O)O` (stereo not shown) [Compound 15f, 1-Amino-3-(3,4-Difluorophenyl)propylphosphonic Acid] returned a melting point of 292 to 293 °C. The Ki in data set [1] came to 1.02 ± 0.3 µM. Besides, the inhibitory constant (Ki) in data set [2] was 0.149 ± 0.011 µM.
For `NC(CCc1ccc(C(F)(F)F)cc1)P(=O)(O)O` (stereo not shown) [Compound 15g, 1-Amino-3-(4-Trifluoromethylphenyl)propylphosphonic Acid] the same measures were 295 to 296 °C, 0.976 ± 0.099 µM and 0.347 ± 0.062 µM.
As for `NC(CCc1ccccc1C(F)(F)F)P(=O)(O)O` (stereo not shown) [Compound 15h, 1-Amino-3-(2-Trifluoromethylphenyl)propylphosphonic Acid], the melting point lay within 244 to 246 °C. Also, in data set [1], the Ki stood at 7.49 ± 0.58 µM. For the same compound, the Ki in data set [2] was determined as 0.804 ± 0.122 µM.
On to `NC(Cc1cc(F)ccc1Br)P(=O)(O)O` (stereo not shown) [Compound 17b], for which the figures for the Ki in data set [1] and in data set [2] were 379 ± 126 µM and 41.7 ± 7.4 µM, respectively.
For `NC(Cc1ccc(F)c(Br)c1)P(=O)(O)O` (stereo not shown) [Compound 17c, 1-Amino-3-(3-Bromo-4-Fluorophenyl)ethylphosphonic Acid] the same measures were 2.22 ± 0.14 µM and 0.248 ± 0.024 µM.
On to `NC(Cc1ccc(Cl)cc1F)P(=O)(O)O` (stereo not shown) [Compound 17o], for which the Ki is 17.8 ± 2.09 µM in data set [3] and 160 ± 11 µM in data set [4].
Turning to `NC(Cc1ccc(Cl)c(F)c1)P(=O)(O)O` (stereo not shown) [Compound 17s], the results for the Ki in data set [3] and in data set [4] were 1.01 ± 0.16 µM and 14.8 ± 0.9 µM, respectively.
Take `NC(Cc1ccc(F)c(Cl)c1)P(=O)(O)O` (stereo not shown) [Compound 17t]: the inhibitory constant (Ki) was 0.542 ± 0.152 µM in data set [3] and 6.93 ± 0.78 µM in data set [4].
